PMC6403800 (Polymers, 2018)
Read-outs that look alike come from different tables or passages of the source. Peptide text beside a SMILES is read from it.

Assays:
[1] = biological target: T1, α-hemolysin (α-HL) nanopore (Staphylococcus aureus, UniProt P09616)
[2] = biological target: T1, α-hemolysin (α-HL) nanopore; assay: biochemical; format: binding; details: for kon: extrapolated to ΔV→0 by fit kon(ΔV)=kon(0)exp(aΔV)

T1 sequence (P09616 27-319 limits assumed): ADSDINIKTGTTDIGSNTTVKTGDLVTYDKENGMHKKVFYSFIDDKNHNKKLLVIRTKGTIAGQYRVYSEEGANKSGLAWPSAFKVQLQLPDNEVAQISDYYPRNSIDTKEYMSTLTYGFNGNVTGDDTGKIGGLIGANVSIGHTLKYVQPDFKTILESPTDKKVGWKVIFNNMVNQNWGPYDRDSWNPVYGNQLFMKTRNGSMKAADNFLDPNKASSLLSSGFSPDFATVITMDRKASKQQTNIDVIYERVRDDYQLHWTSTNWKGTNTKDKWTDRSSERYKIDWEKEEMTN

Compound	relative blockade extent ΔIblock,1/Iopen (residual current I1) ([1]; deeper blockade sub-state I1, Fig. 1: 20 µM trans-added, ΔV = +100 mV, 2 M KCl, 10 mM HEPES, pH 7, ~23 °C, kind of spread not stated)	relative blockade extent ΔIblock,2/Iopen (residual current I2) ([1]; shallower blockade sub-state I2, Fig. 1: 20 µM trans-added, ΔV = +100 mV, 2 M KCl, 10 mM HEPES, pH 7, ~23 °C, kind of spread not stated)	dissociation rate, cis vs trans entry with preserved axial orientation, in words ([2]; at +ΔV (Figure 7a,d) and at −ΔV (Figure 7b,c), 30 μM)	dissociation, comparison of polarity in words ([2]; cis-added, +ΔV vs −ΔV (Figure 7c,d), 30 μM)	association rates trans vs cis side, in words ([2]; high voltages (|ΔV| > 100 mV), 30 μM)	association rate kon, ranking by addition side and voltage polarity ([2]; high voltages (|ΔV| > 100 mV), 30 μM peptide, cis or trans addition)	kon ([2]; pH 7, read-out: near equilibrium association rate constant kon(0), cis-added, +ΔV, 30 μM peptide, 2 M KCl, 10 mM HEPES, pH 7, ~23 °C) [M⁻¹ s⁻¹]	kon ([2]; pH 7, read-out: near equilibrium association rate constant kon(0), cis-added, −ΔV, 30 μM peptide, 2 M KCl, 10 mM HEPES, pH 7, ~23 °C) [M⁻¹ s⁻¹]	kon ([2]; pH 7, read-out: near equilibrium association rate constant kon(0), trans-added, +ΔV, 30 μM peptide, 2 M KCl, 10 mM HEPES, pH 7, ~23 °C) [M⁻¹ s⁻¹]	kon ([2]; pH 7, read-out: near equilibrium association rate constant kon(0), trans-added, −ΔV, 30 μM peptide, 2 M KCl, 10 mM HEPES, pH 7, ~23 °C) [M⁻¹ s⁻¹]	dissociation rate constant koff, comparison of polarity in words ([2]; trans-added, +ΔV vs −ΔV (Figure 7a,b), 30 μM)	association rate constant kon, comparison in words ([2]; trans-added, Pe6 vs Pe4, voltage-dependent (Figure 4a,c), 2 M KCl, 10 mM HEPES, pH 7, ~23 °C)	trapping time inside α-HL, comparison in words ([2]; trans-added, as the positive voltage increases (+80, +90, +100 mV), Pe6 vs Pe4, 2 M KCl, pH 7)	association rate, comparison of polarity in words ([2]; trans-added, relatively low transmembrane potential values (Figure 6a,b insets), 30 μM)	near equilibrium kon(0), ranking by addition side and voltage polarity ([2]; ΔV→0, cis or trans addition, 30 μM peptide)	relative blockade extent ΔIblock,1/Iopen, comparison in words [1]	relative blockade extent ΔIblock,1/Iopen (residual current I1) ([1]; pH 7)	relative blockade extent ΔIblock,2/Iopen (residual current I2) ([1]; pH 7)	dissociation rate constant koff, comparison in words ([2]; pH 7)
CC(=O)N[C@@H](CCCNC(=N)N)C(=O)N[C@@H](CCCNC(=N)N)C(=O)N[C@@H](CCCNC(=N)N)C(=O)N[C@@H](CCCNC(=N)N)C(=O)N[C@@H](CCCNC(=N)N)C(=O)N[C@@H](CCCNC(=N)N)C(=O)N[C@@H](CCCNC(=N)N)C(=O)N[C@@H](CCCNC(=N)N)C(=O)N[C@@H](CCCNC(=N)N)C(=O)N[C@@H](CCCNC(=N)N)C(=O)N[C@@H](CCCNC(=N)N)C(=O)N[C@@H](CCCNC(=N)N)C(=O)N[C@@H](CO)C(=O)N[C@@H](CO)C(=O)N[C@@H](CO)C(=O)N[C@@H](CO)C(=O)N[C@@H](CO)C(=O)N[C@@H](CO)C(=O)N[C@@H](CCC(=O)O)C(=O)N[C@@H](CCC(=O)O)C(=O)N[C@@H](CCC(=O)O)C(=O)N[C@@H](CCC(=O)O)C(=O)N[C@@H](CCC(=O)O)C(=O)N[C@@H](CCC(=O)O)C(=O)N[C@@H](CCC(=O)O)C(=O)N[C@@H](CCC(=O)O)C(=O)N[C@@H](CCC(=O)O)C(=O)N[C@@H](CCC(=O)O)C(=O)N[C@@H](CCC(=O)O)C(=O)N[C@@H](CCC(=O)O)C(N)=O [Pe6, Ac–(R)12–(S)6–(E)12–NH2] (Ac-RRRRRRRRRRRRSSSSSSEEEEEEEEEEEE-NH2)	0.91 ± 0.003	0.83 ± 0.002	within the same order of magnitude	dissociates faster at +ΔVs (Figure 7d) than −ΔVs	the association rates from the trans side are, in general, larger than peptide association from the cis side	koncis;−ΔV<koncis;+ΔV<kontrans;+ΔV<kontrans;−ΔV	63 ± 35.1	26.1 ± 8.9	83500	1200	larger at +ΔVs than at −ΔVs	almost one order of magnitude larger than that of the isoleucine-containing peptide (Pe4)	being trapped longer than Pe4 peptide inside the α-HL, as the voltage increases	associate faster to the nanopore at +ΔVs (Figure 6a, inset) than −ΔV s	koncis;−ΔV(0)<koncis;+ΔV(0)<kontrans;−ΔV(0)<kontrans;+ΔV(0)				
Ac–(R)12–(I)6–(E)12–NH2 [Pe4]																slightly higher extent of relative blockade	0.93 ± 5.1 × 10^−4	0.83 ± 0.004	slightly faster dissociation step
